Results as given in BindingDB's records for doi:10.1016/s0960-894x(01)00126-3 (Technische Universität Graz, 2001).
pKi: −log10 of the molar value.

Test: Tested for inhibitory activity against Beta-glucosidase from Agrobacterium species

pKi	Structure (SMILES)
8.92	CCN(CC)c1ccc2cc(C(=O)NC[C@H]3N[C@H](CO)[C@H](O)[C@@H]3O)c(=O)oc2c1 [7-Diethylamino-2-oxo-2H-chromene-3-carboxylic acid ((R)-(3R,5S)-3,4-dihydroxy-5-hydroxymethyl-pyrrolidin-2-ylmethyl)-amide]
7.00	CCCCCCCCCCCC(=O)NC[C@H]1N[C@H](CO)[C@H](O)[C@@H]1O [Dodecanoic acid ((3S,4S,5R)-3,4-dihydroxy-5-hydroxymethyl-pyrrolidin-2-ylmethyl)-amide]
6.82	O=C(CCc1ccccc1)NC[C@@H]1N[C@H](CO)[C@H](O)[C@@H]1O [N-((3S,4S,5R)-3,4-Dihydroxy-5-hydroxymethyl-pyrrolidin-2-ylmethyl)-3-phenyl-propionamide]
6.26	O=C(NC[C@H]1N[C@H](CO)[C@H](O)[C@@H]1O)c1cccc2ccccc12 [Naphthalene-1-carboxylic acid ((3S,4S,5R)-3,4-dihydroxy-5-hydroxymethyl-pyrrolidin-2-ylmethyl)-amide]
